Results published in ChEMBL document CHEMBL1201862, “PubChem BioAssay data set” (2004).
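Each compound was tested at five concentrations against cells in 96-well plates for 48 hours. GI50 marks 50% less growth.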 Activity calls are given as the source filed them. Cut-off read from the data, not from the text of the source: active = GI50 up to about 1.1 µM and inactive = higher.

Assays:
Test in all cases: growth of human tumour cells (NCI), 48 h
M19-MEL = tested on: M19-MEL
SNB-78 = tested on: SNB-78
LXFL 529 = tested on: LXFL 529
HOP-18 = tested on: HOP-18
KM-20L2 = tested on: KM-20L2
DLD-1 = tested on: DLD-1
DMS-273 = tested on: DMS-273
XF498 = tested on: XF498
RXF 631 = tested on: RXF 631

Row | SMILES | GI50 (M19-MEL) | GI50 (SNB-78) | GI50 (LXFL 529) | GI50 (HOP-18) | GI50 (KM-20L2) | GI50 (DLD-1) | GI50 (DMS-273) | GI50 (XF498) | GI50 (RXF 631)
1 | C1CCOC2(CCC3(CC2)OCCCCO3)OC1 | > 100 µM (inactive) | > 100 µM (inactive) | > 100 µM (inactive) | > 100 µM (inactive) | > 100 µM (inactive) | > 100 µM (inactive) | > 100 µM (inactive) | – | –
2 | CC1=C(C(=O)Nc2cc(F)c(F)cc2F)C(c2ccc3c(c2)OCO3)C(C(=O)Nc2cc(F)c(F)cc2F)=C(C)N1 | 20.7 µM (inactive) | 17.2 µM (inactive) | 23.2 µM (inactive) | – | 22.3 µM (inactive) | 18.9 µM (inactive) | – | 6.34 µM (inactive) | –
3 | COC(=O)C1=C(C(=O)OC)C2C=CC1C1C(Cl)=C(Cl)C21 (centres undefined) | > 100 µM (inactive) | – | > 100 µM (inactive) | > 100 µM (inactive) | > 100 µM (inactive) | > 100 µM (inactive) | > 100 µM (inactive) | – | > 100 µM (inactive)
4 | CC(=O)O[C@]1(C)OC(=O)[C@@H](CC(C)C)N1[N+](=O)[O-] | > 100 µM (inactive) | > 100 µM (inactive) | > 100 µM (inactive) | > 100 µM (inactive) | > 100 µM (inactive) | > 100 µM (inactive) | > 100 µM (inactive) | < 0.01 µM (active) | –
5 | COc1ccc(C2S/C(=C\c3cccc([N+](=O)[O-])c3)C(=O)N2NC(=O)Cc2ccccc2)cc1 (centres undefined) | > 100 µM (inactive) | – | > 100 µM (inactive) | > 100 µM (inactive) | – | > 100 µM (inactive) | > 100 µM (inactive) | – | –
6 | C[N+](C)(C)CC1CCC(C[N+](C)(C)C)C1=O (centres undefined) | 1.94 µM (inactive) | 2.4 µM (inactive) | 0.555 µM (active) | 0.794 µM (active) | 3.18 µM (inactive) | 2.2 µM (inactive) | 2.16 µM (inactive) | 2.03 µM (inactive) | 5.47 µM (inactive)
7 | [O-][S+]1Nc2cccc(C(F)(F)F)c2S1 (centres undefined) | 66.1 µM (inactive) | 31.2 µM (inactive) | 26.5 µM (inactive) | 72.4 µM (inactive) | 29.9 µM (inactive) | 34.4 µM (inactive) | 25.1 µM (inactive) | 21.1 µM (inactive) | –
8 | O=C(CCC(=O)Nc1cccc(C(F)(F)F)c1)CC(=O)c1ccc2ccccc2c1 | > 100 µM (inactive) | > 100 µM (inactive) | > 100 µM (inactive) | > 100 µM (inactive) | > 100 µM (inactive) | > 100 µM (inactive) | > 100 µM (inactive) | > 100 µM (inactive) | > 100 µM (inactive)
9 | O=P1(NCCCl)OCCCN1CCCl (centres undefined) [IFOSFAMIDE] | 395 µM (inactive) | 384 µM (inactive) | 498 µM (inactive) | 104 µM (inactive) | 385 µM (inactive) | 380 µM (inactive) | 364 µM (inactive) | 381 µM (inactive) | –
10 | CCN(CC)CCCNc1ccc2ncn3c4ccc(O)cc4c(=O)c1c23 | 5.83 µM (inactive) | 8.65 µM (inactive) | 2.65 µM (inactive) | 18.6 µM (inactive) | 2.85 µM (inactive) | 1.24 µM (inactive) | 0.553 µM (active) | 0.239 µM (active) | –
11 | CC(=O)Nc1ccc(-c2nnc(SCC(=O)Nc3ccccc3[N+](=O)[O-])o2)cc1 | > 100 µM (inactive) | > 100 µM (inactive) | 29.9 µM (inactive) | > 100 µM (inactive) | > 100 µM (inactive) | > 100 µM (inactive) | > 100 µM (inactive) | – | –
12 | COc1c(C(=O)O)oc2c(OC)cccc12 | > 100 µM (inactive) | > 100 µM (inactive) | > 100 µM (inactive) | > 100 µM (inactive) | – | – | > 100 µM (inactive) | – | –
13 | CC1(C)OC(=O)C(=C2CC(c3ccccc3)c3ccccc32)C(=O)O1 (centres undefined) | > 100 µM (inactive) | > 100 µM (inactive) | > 100 µM (inactive) | > 100 µM (inactive) | > 100 µM (inactive) | > 100 µM (inactive) | – | – | > 100 µM (inactive)
14 | CCOC(=O)N[C@H]1CCc2cc(OC)c(OC)c(OC)c2-c2ccc(SC)c(=O)cc21 | – | < 0.01 µM (active) | – | – | < 0.01 µM (active) | < 0.01 µM (active) | < 0.01 µM (active) | < 0.01 µM (active) | –
15 | O=C(/C=C/c1ccc(Br)cc1)c1ccc(NCc2nc3ccccc3[nH]2)cc1 | 6.56 µM (inactive) | 2.98 µM (inactive) | 4.24 µM (inactive) | > 46.2 µM (inactive) | 4.83 µM (inactive) | 4.83 µM (inactive) | 5.7 µM (inactive) | 5.89 µM (inactive) | –
16 | O=[N+]([O-])c1ccc(C2N3CCCCC3[C@@H]3c4[nH]c5ccccc5c4CCN23)cc1 (some centres undefined) | 6.07 µM (inactive) | 3.96 µM (inactive) | 16.8 µM (inactive) | 67.3 µM (inactive) | 11 µM (inactive) | 10.8 µM (inactive) | 17.5 µM (inactive) | 17.8 µM (inactive) | 28.5 µM (inactive)
17 | COc1cc2cc(OC)c3cc4c(cc3c2c(OC)c1OC)OCO4 | 20.8 µM (inactive) | 50.2 µM (inactive) | 31.3 µM (inactive) | 67.6 µM (inactive) | 11.6 µM (inactive) | 18.1 µM (inactive) | 15.1 µM (inactive) | – | 32.5 µM (inactive)
18 | NC(CS)C(=O)NCCNc1ccc(NCCNC(=O)C(N)CS)c2c1C(=O)c1c(O)ccc(O)c1C2=O (centres undefined) | 0.0318 µM (active) | 0.214 µM (active) | 0.106 µM (active) | 0.439 µM (active) | 0.0618 µM (active) | 0.121 µM (active) | 0.00168 µM (active) | 0.0138 µM (active) | –
19 | CC1=C(/C(C)=N/NC(=O)C(N)=O)Sc2ccccc2N1 | > 100 µM (inactive) | > 100 µM (inactive) | > 100 µM (inactive) | > 100 µM (inactive) | > 100 µM (inactive) | > 100 µM (inactive) | > 100 µM (inactive) | > 100 µM (inactive) | –
20 | CSC(=S)N/N=C/c1nccc2ccccc12 | 2.29 µM (inactive) | 3.18 µM (inactive) | 0.488 µM (active) | 1.82 µM (inactive) | 0.43 µM (active) | 0.537 µM (active) | 1.85 µM (inactive) | 0.809 µM (active) | 4.69 µM (inactive)
21 | O=C(N/C(=C\c1ccc(F)cc1)c1nc2ccccc2[nH]1)c1ccccc1 | > 100 µM (inactive) | > 100 µM (inactive) | > 100 µM (inactive) | > 100 µM (inactive) | > 100 µM (inactive) | > 100 µM (inactive) | – | > 100 µM (inactive) | > 100 µM (inactive)
22 | CCOc1ccc(/N=C\c2cc(OC)c(OC)c(OC)c2)cc1 | > 100 µM (inactive) | > 100 µM (inactive) | > 100 µM (inactive) | > 100 µM (inactive) | > 100 µM (inactive) | > 100 µM (inactive) | > 100 µM (inactive) | > 100 µM (inactive) | –
23 | COc1ccc2nc3ccccc3c(NCCCN(C)CCCl)c2c1 | 0.353 µM (active) | 0.156 µM (active) | 0.0995 µM (active) | – | 0.17 µM (active) | 0.233 µM (active) | 0.153 µM (active) | 0.212 µM (active) | 0.23 µM (active)
24 | O=C(CCc1ccccc1)NS(=O)(=O)c1ccccc1 | > 100 µM (inactive) | – | > 100 µM (inactive) | > 100 µM (inactive) | > 100 µM (inactive) | > 100 µM (inactive) | – | > 100 µM (inactive) | > 100 µM (inactive)
25 | COc1cc(C(=O)C/C(CCC(=O)Nc2ccccc2[N+](=O)[O-])=N\NC(N)=O)ccc1O | > 100 µM (inactive) | > 100 µM (inactive) | – | 89.1 µM (inactive) | > 100 µM (inactive) | – | > 100 µM (inactive) | 6.49 µM (inactive) | > 100 µM (inactive)
26 | COc1ccc(C2Cc3cc(OC)c(OC)c(OC)c3C2)cc1 (centres undefined) | 41.9 µM (inactive) | 72.6 µM (inactive) | – | 72.3 µM (inactive) | 49.8 µM (inactive) | 44.7 µM (inactive) | 36.8 µM (inactive) | 11.3 µM (inactive) | –
